{
  "source": "patent US11970493B2",
  "about": "“Autotaxin inhibitor compounds” (ILDONG PHARMACEUTICAL CO., LTD., priority 2020, dated 2024)",
  "note": "Counter-ions that a name gives are not always drawn.",
  "data": [
    {"molecular_target": "hATX/ENPP2 (Homo sapiens, UniProt Q13822)", "test": "hATX/ENPP2 biochemical assay using 16:0-LPC as substrate (Amplex Red/choline oxidase/HRP fluorescence)", "details": "hENPP2 2.5 nM, LPC (16:0) substrate", "experimental": "The enzyme is diluted in 50 mM Tris-HCl pH 8.0, 140 mM NaCl, 5 mM CaCl2, 0.01% Triton X-100 in a total volume of 5 μL. The aqueous solution of enzyme is added to the wells and incubated with different concentrations of the compounds at room temperature for 15 min. The reaction is started by the addition of 5 μL of 80 μM LPC (16:0) and 10 μL of the detection mixture containing 200 μM Amplex Red, 10 U/mL choline oxidase and 4 U/mL HRP. Fluorescence at 590 nm was measured kinetically with excitation at 530 nm. The slope of the curve (from 60 to 70 min of the reaction time) was used to calculate the compounds' IC50 values.", "units": {"IC50": "nM"}, "values": [
      {"smiles": "CCc1nc2ccc(-c3cnc(N4CCC(NC(=O)[C@H]5C[C@@H](O)CN5)CC4)nc3)cn2c1N(C)c1nc(-c2ccc(F)cc2)c(C#N)s1", "note": "[Compound 76, (2R,4R)—N-(1-(5-(3-((5-cyano-4-(4-fluorophenyl)thiazol-2-yl)(methyl)amino)-2-ethylimidazo[1,2-a]pyridin-6-yl)pyrimidin-2-vl)piperidin-4-yl)-4-hydroxypyrrolidine-2-carboxamide]", "IC50": "≤ 20"},
      {"smiles": "CCc1nc2ccc(-c3cnc(CC(=O)NC4CC4)nc3)cn2c1N(C)c1nc(-c2ccc(F)cc2)c(C#N)s1", "note": "[Compound 62, 2-(5-(3-((5-cyano-4-(4-fluorophenyl)thiazol-2-yl)(methyl)amino)-2-ethylimidazo[1,2-a]pyridin-6-yl)pyrimidin-2-yl)-N-cyclopropyl acetamide]", "IC50": "20 to 200"},
      {"smiles": "CCc1nc2ccc(-c3cnc(N4CCC(NC5CCNCC5)CC4)nc3)cn2c1N(C)c1nc(-c2ccc(F)cc2)c(C#N)s1", "note": "[Compound 69 formate, 2-((2-ethyl-6-(2-(4-(piperidin-4-ylamino)piperidin-1-yl)pyrimidin-5-yl)imidazo[1,2-a]pyridin-3-yl)(methyl)amino)-4-(4-fluorophenyl) thiazole-5-carbonitrile formate]", "IC50": "≤ 20"},
      {"smiles": "CCc1nc2ccc(-c3cnc(N4CCN(C(=O)[C@@H]5C[C@H](O)CN5)CC4)nc3)cn2c1N(C)c1nc(-c2ccc(F)cc2)c(C#N)s1", "note": "[Compound 7, 2-((2-ethyl-6-(2-(4-((2S,4S)-4-hydroxypyrrolidine-2-carbonyl)piperazin-1-yl)pyrimidin-5-yl)imidazo[1,2-a]pyridin-3-yl)(methyl)amino)-4-(4-fluorophenyl) thiazole-5-carbonitrile]", "IC50": "≤ 20"},
      {"smiles": "CCc1nc2ccc(-c3cnc(N4CC(NC5CC5)C4)nc3)cn2c1N(C)c1nc(-c2ccc(F)cc2)c(C#N)s1", "note": "[Compound 105, 2-((6-(2-(3-(cyclopropylamino)azetidin-1-yl)pyrimidin-5-yl)-2-ethylimidazo[1,2-a]pyridin-3-yl)(methyl)amino)-4-(4-fluorophenyl)thiazole-5-carbonitrile]", "IC50": "20 to 200"},
      {"smiles": "CCc1nc2ccc(-c3cnc(C(=O)N4CC(O)C4)nc3)cn2c1N(C)c1nc(-c2ccc(F)cc2)c(C#N)s1", "note": "[Compound 11, 2-((2-ethyl-6-(2-(3-hydroxyazetidine-1-carbonyl)pyrimidin-5-yl)imidazo[1,2-a]pyridin-3-yl)(methyl)amino)-4-(4-fluorophenyl)thiazole-5-carbonitrile]", "IC50": "20 to 200"},
      {"smiles": "CCc1nc2ccc(-c3ccc(N4CCC(NC5CCNCC5)CC4)nc3)cn2c1N(C)c1nc(-c2ccc(F)cc2)c(C#N)s1", "note": "[Compound 90, 2-((2-ethyl-6-(6-(4-(piperidin-4-ylamino)piperidin-1-yl)pyridin-3-yl)imidazo[1,2-a]pyridin-3-yl)(methyl)amino)-4-(4-fluorophenyl)thiazole-5-carbonitrile]", "IC50": "≤ 20"},
      {"smiles": "CCc1nc2ccc(-c3cnc(N4CC(NC5(C#N)CC5)C4)nc3)cn2c1N(C)c1nc(-c2ccc(F)cc2)c(C#N)s1", "note": "[Compound 28, 2-((6-(2-(3-((1-cyanocyclopropyl)amino)azetidin-1-yl)pyrimidin-5-yl)-2-ethylimidazo[1,2-a]pyridin-3-yl)(methyl)amino)-4-(4-fluorophenyl)thiazole-5-carbonitrile]", "IC50": "20 to 200"},
      {"smiles": "CCc1nc2ccc(-c3cnc(N4CCNCC4)nc3)cn2c1N(C)c1nc(-c2ccc(F)cc2)c(C#N)s1", "note": "[Compound 4, 2-((2-ethyl-6-(2-(piperazin-1-yl)pyrimidin-5-yl)imidazo[1,2-a]pyridin-3-yl)(methyl)amino)-4-(4-fluorophenyl)thiazole-5-carbonitrile]", "IC50": "20 to 200"},
      {"smiles": "CCc1nc2ccc(-c3cnc(N4CC(NC(=O)[C@H]5C[C@H](O)CN5)C4)nc3)cn2c1N(C)c1nc(-c2ccc(F)cc2)c(C#N)s1", "note": "[Compound 23, (2R,4S)—N-(1-(5-(3-((5-cyano-4-(4-fluorophenyl)thiazol-2-yl)(methyl)amino)-2-ethylimidazo[1,2-a]pyridin-6-yl)pyrimidin-2-yl)azetidin-3-yl)-4-hydroxypyrrolidine-2-carboxamide]", "IC50": "20 to 200"},
      {"smiles": "CCc1nc2ccc(-c3cnc(N4CCN(C(=O)[C@@H]5C[C@@H](O)CN5C)CC4)nc3)cn2c1N(C)c1nc(-c2ccc(F)cc2)c(C#N)s1", "note": "[Compound 78, 2-((2-ethyl-6-(2-(4-((2S,4R)-4-hydroxy-1-methylpyrrolidine-2-carbonyl)piperazin-1-yl)pyrimidin-5-yl)imidazo [1,2-a]pyridin-3-yl)(methyl)amino)-4-(4-fluorophenyl)thiazole-5-carbonitrile]", "IC50": "≤ 20"},
      {"smiles": "CCc1nc2ccc(-c3cnc(C4CCN(C(=O)C5CCC5)CC4)nc3)cn2c1N(C)c1nc(-c2ccc(F)cc2)c(C#N)s1", "note": "[Compound 100, 2-((6-(2-(1-(cyclobutanecarbonyl)piperidin-4-yl)pyrimidin-5-yl)-2-ethylimidazo[1,2-a]pyridin-3-yl)(methyl)amino)-4-(4-fluorophenyl)thiazole-5-carbonitrile]", "IC50": "20 to 200"},
      {"smiles": "CCc1nc2ccc(-c3cnc(N4CCN(C(=O)[C@H]5C[C@H](O)CN5)CC4)nc3)cn2c1N(C)c1nc(-c2ccc(F)cc2)c(C#N)s1", "note": "[Compound 8, 2-((2-ethyl-6-(2-(4-((2R,4S)-4-hydroxypyrrolidine-2-carbonyl)piperazin-1-yl)pyrimidin-5-yl)imidazo[1,2-a]pyridin-3-yl)(methyl)amino)-4-(4-fluorophenyl)thiazole-5-carbonitrile]", "IC50": "≤ 20"},
      {"smiles": "CCc1nc2ccc(-c3cnc(N4CCC(NC(=O)[C@@H]5C[C@@H](O)CN5)CC4)nc3)cn2c1N(C)c1nc(-c2ccc(F)cc2)c(C#N)s1", "note": "[Compound 77, (2S,4R)—N-(1-(5-(3-((5-cyano-4-(4-fluorophenyl)thiazol-2-yl)(methyl)amino)-2-ethylimidazo[1,2-a]pyridin-6-yl)pyrimidin-2-yl)piperidin-4-yl)-4-hydroxypyrrolidine-2-carboxamide]", "IC50": "≤ 20"},
      {"smiles": "CCc1nc2ccc(-c3cnc(CC(=O)N4CC[C@@H](O)C4)nc3)cn2c1N(C)c1nc(-c2ccc(F)cc2)c(C#N)s1", "note": "[Compound 56, (R)-2-((2-ethyl-6-(2-(2-(3-hydroxypyrrolidin-1-yl)-2-oxoethyl)pyrimidin-5-yl)imidazo[1,2-a]pyridin-3-yl)(methyl)amino)-4-(4-fluorophenyl)thiazole-5-carbonitrile]", "IC50": "20 to 200"},
      {"smiles": "CCc1nc2ccc(-c3cnc(N4CC(NC(=O)[C@@H]5C[C@@H](O)CN5C)C4)nc3)cn2c1N(C)c1nc(-c2ccc(F)cc2)c(C#N)s1", "note": "[81 (hydrochloride salt), (2S,4R)—N-(1-(5-(3-((5-cyano-4-(4-fluorophenyl)thiazol-2-yl)(methyl)amino)-2-ethylimidazo[1,2-a]pyridin-6-yl)pyrimidin-2-yl)azetidin-3-yl)-4-hydroxy-1-methyl pyrrolidine-2-carboxamide hydrochloride]", "IC50": "20 to 200"},
      {"smiles": "CCc1nc2ccc(-c3ccc(N4CCN(C(=O)[C@@H]5C[C@@H](O)CN5)CC4)nc3)cn2c1N(C)c1nc(-c2ccc(F)cc2)c(C#N)s1", "note": "[Compound 95, 2-((2-ethyl-6-(6-(4-((2S,4R)-4-hydroxypyrrolidine-2-carbonyl)piperazin-1-yl)pyridin-3-yl)imidazo[1,2-a]pyridin-3-yl)(methyl)amino)-4-(4-fluorophenyl)thiazole-5-carbonitrile]", "IC50": "≤ 20"}
    ]}
  ]
}
